The text below walks through data of patent US20230295167A1, “POTENT AND SELECTIVE INHIBITORS OF HER2” (DANA-FARBER CANCER INSTITUTE, INC., priority 2020, published 2023).

SMILES strings stand for the structures.

What is called IC50 is the concentration that gives 50% inhibition.

Common to all, as to type: cell-based
What all share (details): 72 hours

The target of test [1] is T1, HER2 YVMA (Ba/F3 cells) (Homo sapiens, UniProt P04626, INS775YVMA).
T1 construct: expressed in transfected cells; host or cells: Ba/F3
T1 sequence (P04626 with tags, fused parts or gaps INS775YVMA): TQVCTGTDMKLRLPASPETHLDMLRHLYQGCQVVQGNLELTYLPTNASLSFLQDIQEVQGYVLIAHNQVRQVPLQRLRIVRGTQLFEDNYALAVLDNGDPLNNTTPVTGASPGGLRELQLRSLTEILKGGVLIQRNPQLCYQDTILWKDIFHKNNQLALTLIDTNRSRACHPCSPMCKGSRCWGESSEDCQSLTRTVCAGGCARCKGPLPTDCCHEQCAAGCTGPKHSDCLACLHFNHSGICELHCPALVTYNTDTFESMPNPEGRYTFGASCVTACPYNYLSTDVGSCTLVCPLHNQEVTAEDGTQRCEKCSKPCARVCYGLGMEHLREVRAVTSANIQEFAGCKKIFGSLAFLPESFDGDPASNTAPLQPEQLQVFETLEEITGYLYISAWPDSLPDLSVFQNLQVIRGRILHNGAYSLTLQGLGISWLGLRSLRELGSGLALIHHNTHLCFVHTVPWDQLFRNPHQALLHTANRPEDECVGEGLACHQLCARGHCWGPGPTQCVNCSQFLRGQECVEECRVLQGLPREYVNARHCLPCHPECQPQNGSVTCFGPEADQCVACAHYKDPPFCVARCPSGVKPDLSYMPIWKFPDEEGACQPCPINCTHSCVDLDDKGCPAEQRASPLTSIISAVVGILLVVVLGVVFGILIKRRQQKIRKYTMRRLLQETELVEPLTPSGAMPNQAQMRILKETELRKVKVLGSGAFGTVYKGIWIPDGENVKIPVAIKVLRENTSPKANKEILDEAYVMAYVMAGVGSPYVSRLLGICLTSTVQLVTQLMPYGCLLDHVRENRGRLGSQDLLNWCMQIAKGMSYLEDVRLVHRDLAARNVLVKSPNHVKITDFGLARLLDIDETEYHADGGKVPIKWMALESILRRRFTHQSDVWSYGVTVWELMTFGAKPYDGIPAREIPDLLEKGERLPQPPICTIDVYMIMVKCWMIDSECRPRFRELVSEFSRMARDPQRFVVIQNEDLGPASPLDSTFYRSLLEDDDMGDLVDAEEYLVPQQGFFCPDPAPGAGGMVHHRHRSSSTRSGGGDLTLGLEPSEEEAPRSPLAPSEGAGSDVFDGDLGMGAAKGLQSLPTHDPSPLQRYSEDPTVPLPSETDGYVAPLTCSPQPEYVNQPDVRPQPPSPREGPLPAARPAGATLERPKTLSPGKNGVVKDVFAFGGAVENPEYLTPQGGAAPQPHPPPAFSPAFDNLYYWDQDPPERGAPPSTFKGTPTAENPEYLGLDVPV
Description: MTS assay, Ba/F3 cells, HER2 YVMA. How it is done:
(§1) The IC50 values of the compounds provided herein were measured against kinases in Ba/F3 cells.
(§2) Activities of representative compounds of the present application in inhibiting EGFR and HER2 were tested by MTS assay (abcam®) for Ba/F3 cells. For assays with Ba/F3 cells, 3000 cells were seeded for per well in 96-well plates and were exposed to the indicated compounds with a concentration of 3.3 to 10 μM for 72 hours.
(In general: Tetrazolium dyes change colour on reduction, which living cells bring about.)

In test [2] the target is T2, EFGR SVD (Ba/F3 cells) (Homo sapiens, UniProt P00533, INS770SVD).
T2 construct: expressed in transfected cells; host or cells: Ba/F3
T2 sequence (P00533 with tags, fused parts or gaps INS770SVD): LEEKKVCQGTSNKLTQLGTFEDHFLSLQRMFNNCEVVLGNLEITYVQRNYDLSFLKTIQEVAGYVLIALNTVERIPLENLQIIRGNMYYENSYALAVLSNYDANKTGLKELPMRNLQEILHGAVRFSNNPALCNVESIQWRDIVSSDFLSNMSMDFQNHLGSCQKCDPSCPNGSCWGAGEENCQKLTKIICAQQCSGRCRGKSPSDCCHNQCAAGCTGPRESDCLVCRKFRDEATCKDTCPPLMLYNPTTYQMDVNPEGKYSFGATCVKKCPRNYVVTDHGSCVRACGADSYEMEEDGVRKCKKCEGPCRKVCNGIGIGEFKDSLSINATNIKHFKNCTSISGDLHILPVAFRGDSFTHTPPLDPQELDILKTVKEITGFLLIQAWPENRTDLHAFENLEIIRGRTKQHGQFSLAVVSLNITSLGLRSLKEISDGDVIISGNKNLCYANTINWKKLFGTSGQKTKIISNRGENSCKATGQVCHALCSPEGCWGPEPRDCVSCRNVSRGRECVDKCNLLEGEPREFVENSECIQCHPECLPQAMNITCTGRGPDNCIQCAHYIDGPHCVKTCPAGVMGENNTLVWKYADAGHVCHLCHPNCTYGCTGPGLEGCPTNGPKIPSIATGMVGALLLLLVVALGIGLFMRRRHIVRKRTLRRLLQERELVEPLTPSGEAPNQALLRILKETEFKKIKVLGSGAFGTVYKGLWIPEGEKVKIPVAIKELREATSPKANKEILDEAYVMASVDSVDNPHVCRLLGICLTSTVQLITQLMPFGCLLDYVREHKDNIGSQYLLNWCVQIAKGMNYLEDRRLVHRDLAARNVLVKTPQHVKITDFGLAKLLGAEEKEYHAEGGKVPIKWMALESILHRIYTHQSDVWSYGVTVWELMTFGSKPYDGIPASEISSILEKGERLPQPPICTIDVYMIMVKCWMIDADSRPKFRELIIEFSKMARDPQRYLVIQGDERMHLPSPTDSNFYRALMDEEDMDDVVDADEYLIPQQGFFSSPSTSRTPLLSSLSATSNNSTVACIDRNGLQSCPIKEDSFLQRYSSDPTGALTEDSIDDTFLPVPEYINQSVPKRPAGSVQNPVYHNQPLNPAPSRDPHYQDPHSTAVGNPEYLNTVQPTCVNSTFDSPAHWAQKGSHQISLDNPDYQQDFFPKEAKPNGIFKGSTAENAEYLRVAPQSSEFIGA
Description: MTS assay, Ba/F3 cells, EFGR SVD. How it is done:
as §1, §2

The target of test [3] is T3, EFGR ASV (Ba/F3 cells) (Homo sapiens, UniProt P00533, INS769ASV).
T3 construct: expressed in transfected cells; host or cells: Ba/F3
T3 sequence (P00533 with tags, fused parts or gaps INS769ASV): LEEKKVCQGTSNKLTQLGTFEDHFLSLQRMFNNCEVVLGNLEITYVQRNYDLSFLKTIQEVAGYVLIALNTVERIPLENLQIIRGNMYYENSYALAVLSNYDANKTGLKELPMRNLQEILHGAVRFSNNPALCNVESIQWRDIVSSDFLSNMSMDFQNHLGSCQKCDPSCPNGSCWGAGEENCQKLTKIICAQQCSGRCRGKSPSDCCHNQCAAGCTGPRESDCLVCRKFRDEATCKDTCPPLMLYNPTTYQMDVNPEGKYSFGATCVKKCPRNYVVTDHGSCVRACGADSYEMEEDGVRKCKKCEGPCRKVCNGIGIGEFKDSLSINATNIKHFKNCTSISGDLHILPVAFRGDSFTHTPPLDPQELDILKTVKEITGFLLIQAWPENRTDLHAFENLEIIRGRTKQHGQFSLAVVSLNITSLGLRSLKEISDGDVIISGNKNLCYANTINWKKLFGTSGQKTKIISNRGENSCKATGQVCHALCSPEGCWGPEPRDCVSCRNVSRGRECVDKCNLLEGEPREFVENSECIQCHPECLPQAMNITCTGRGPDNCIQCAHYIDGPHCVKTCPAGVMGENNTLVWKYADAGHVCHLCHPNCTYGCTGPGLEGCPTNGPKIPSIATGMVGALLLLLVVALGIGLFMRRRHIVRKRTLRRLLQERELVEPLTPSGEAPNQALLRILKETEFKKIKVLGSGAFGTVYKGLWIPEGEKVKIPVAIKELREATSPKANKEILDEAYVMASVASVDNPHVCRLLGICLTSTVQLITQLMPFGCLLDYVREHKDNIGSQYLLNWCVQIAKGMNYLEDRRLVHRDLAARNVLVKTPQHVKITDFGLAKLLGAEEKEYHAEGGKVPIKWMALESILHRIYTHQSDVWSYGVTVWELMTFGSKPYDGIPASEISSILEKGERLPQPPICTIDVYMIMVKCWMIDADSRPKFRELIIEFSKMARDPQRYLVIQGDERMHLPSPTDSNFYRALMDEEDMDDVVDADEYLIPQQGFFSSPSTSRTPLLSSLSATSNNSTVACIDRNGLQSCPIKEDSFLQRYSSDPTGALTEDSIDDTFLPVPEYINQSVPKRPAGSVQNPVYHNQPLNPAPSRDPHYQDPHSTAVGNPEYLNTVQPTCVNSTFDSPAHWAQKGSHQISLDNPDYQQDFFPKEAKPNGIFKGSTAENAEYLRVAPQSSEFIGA
Description: MTS assay, Ba/F3 cells, EFGR ASV. How it is done: as §1, §2

The target of test [4] is T4, EFGR WT (Ba/F3 cells) (Homo sapiens, UniProt P00533).
T4 construct: expressed in transfected cells; host or cells: Ba/F3
The test can be described thus: MTS assay, Ba/F3 cells, EFGR WT. How it is done:
as §1, §2

The target of test [5] is T5, HER2 GSP (Ba/F3 cells) (Homo sapiens, UniProt P04626, INS780GSP).
T5 construct: expressed in transfected cells; host or cells: Ba/F3
T5 sequence (P04626 with tags, fused parts or gaps INS780GSP): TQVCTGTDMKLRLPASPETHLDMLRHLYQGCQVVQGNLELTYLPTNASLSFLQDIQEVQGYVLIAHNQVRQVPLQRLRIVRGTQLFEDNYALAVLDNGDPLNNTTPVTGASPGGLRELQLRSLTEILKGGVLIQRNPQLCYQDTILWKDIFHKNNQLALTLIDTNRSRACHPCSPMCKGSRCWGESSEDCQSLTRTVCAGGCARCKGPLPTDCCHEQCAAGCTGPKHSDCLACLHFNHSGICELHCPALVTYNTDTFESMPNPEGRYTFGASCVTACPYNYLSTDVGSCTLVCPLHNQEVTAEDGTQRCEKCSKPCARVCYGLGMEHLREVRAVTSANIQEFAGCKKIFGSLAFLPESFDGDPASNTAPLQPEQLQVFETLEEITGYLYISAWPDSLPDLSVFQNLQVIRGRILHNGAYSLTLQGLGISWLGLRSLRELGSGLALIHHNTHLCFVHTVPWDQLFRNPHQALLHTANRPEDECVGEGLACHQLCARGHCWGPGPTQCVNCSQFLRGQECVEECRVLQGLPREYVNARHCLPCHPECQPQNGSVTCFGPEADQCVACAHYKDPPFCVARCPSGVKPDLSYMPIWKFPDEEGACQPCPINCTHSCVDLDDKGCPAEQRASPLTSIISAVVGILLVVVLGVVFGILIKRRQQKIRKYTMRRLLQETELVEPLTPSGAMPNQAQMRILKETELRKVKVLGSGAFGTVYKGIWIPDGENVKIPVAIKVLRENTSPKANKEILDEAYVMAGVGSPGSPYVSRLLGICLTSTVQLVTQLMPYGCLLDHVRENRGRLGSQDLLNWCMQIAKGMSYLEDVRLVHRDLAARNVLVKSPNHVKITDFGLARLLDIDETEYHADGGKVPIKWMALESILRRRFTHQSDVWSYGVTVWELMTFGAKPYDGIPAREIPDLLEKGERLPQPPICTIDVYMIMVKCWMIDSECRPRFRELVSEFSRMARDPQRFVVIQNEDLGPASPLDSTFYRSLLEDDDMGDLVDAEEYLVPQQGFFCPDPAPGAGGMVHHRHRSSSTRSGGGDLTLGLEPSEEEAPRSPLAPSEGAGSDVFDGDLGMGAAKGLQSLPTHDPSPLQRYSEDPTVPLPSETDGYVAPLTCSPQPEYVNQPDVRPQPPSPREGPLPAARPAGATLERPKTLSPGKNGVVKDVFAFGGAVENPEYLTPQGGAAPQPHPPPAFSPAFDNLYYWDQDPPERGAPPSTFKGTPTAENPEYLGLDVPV
Description: MTS assay, Ba/F3 cells, HER2 GSP. How it is done: as §1, §2

Test [6] addresses T6, HER2 WT (Ba/F3 cells) (Homo sapiens, UniProt P04626).
T6 construct: expressed in transfected cells; host or cells: Ba/F3
Description: MTS assay, Ba/F3 cells, HER2 WT. How it is done:
as §1, §2

Consider `C=CC(=O)N1CCC[C@@H](n2nc(C(=O)Nc3ccc(Oc4ccn5ncnc5c4)c(C)c3C)c3c(N)ncnc32)C1` [Compound 1, (R)—N—(4-([1,2,4]triazolo[1,5-a]pyridin-7-yloxy)-2,3-dimethylphenyl)-1-(1-acryloylpiperidin-3-yl)-4-amino-1H-pyrazolo[3,4-d]pyrimidine-3-carboxamide], for which the half-inhibitory concentration (IC50) in test [1] came out at 0.0322 µM; in test [2], 2.62 µM; in test [3] it was 1.81 µM; in test [4], 1.38 µM; in test [5] it was 0.0567 µM; in test [6], 0.111 µM.
On to `C=CC(=O)N1CCC[C@@H](n2nc(C(=O)Nc3ccc(Oc4ccn5ncnc5c4)c(C)c3)c3c(N)ncnc32)C1` [Compound 2, (R)—N—(4-([1,2,4]triazolo[1,5-a]pyridin-7-yloxy)-3-methylphenyl)-1-(1-acryloylpiperidin-3-yl)-4-amino-1H-pyrazolo[3,4-d]pyrimidine-3-carboxamide], for which the IC50 in test [1] turned out to be 0.0559 µM; in test [2] it was 3.98 µM; in test [3], 2.24 µM; in test [4] it was 3.27 µM; in test [5], 0.0958 µM; in test [6] it was 0.193 µM.
Take `C=CC(=O)N1CCC[C@@H](n2nc(C(=O)Nc3ccc(Oc4ccn5ncnc5c4)c(Cl)c3)c3c(N)ncnc32)C1` [Compound 3, (R)—N—(4-([1,2,4]triazolo[1,5-a]pyridin-7-yloxy)-3-chlorophenyl)-1-(1-acryloylpiperidin-3-yl)-4-amino-1H-pyrazolo[3,4-d]pyrimicline-3-carboxamide]: the IC50 was 0.0455 µM in test [1]; 2.61 µM in test [2]; 1.46 µM in test [3]; 2.11 µM in test [4]; 0.0786 µM in test [5]; 0.0981 µM in test [6].
For the compound `C=CC(=O)N1CCC[C@@H](n2nc(C(=O)Nc3ccc(Cn4ccnc4)c(C)c3)c3c(N)ncnc32)C1` [Compound 4], the IC50 in test [1] is 3.16 µM; in test [2], 6.04 µM; in test [3], 4.53 µM; in test [4], 7.16 µM; in test [5] it was 1.44 µM; in test [6], 3.85 µM.
Consider `C=CC(=O)N1CCC[C@@H](n2nc(C(=O)Nc3cc(C)cc(CC(=O)N(C)C)c3)c3c(N)ncnc32)C1` [Compound 5], for which the IC50 in test [1] amounted to 4.47 µM; in test [2] it was 7.62 µM; in test [3] it was 5.72 µM; in test [4], 8.96 µM; in test [5], 2.39 µM; in test [6] it was 4.08 µM.
Turning to `C=CC(=O)N1CCC[C@@H](n2nc(C(=O)Nc3ccc(C(=O)N4CCn5ccnc5C4)c(C)c3)c3c(N)ncnc32)C1` [Compound 6], the IC50 in test [1] worked out at 7.56 µM; in test [2] it was 7.84 µM; in test [3] it was 6.81 µM; in test [4] it was 9.42 µM; in test [5] it was 5.64 µM; in test [6], 5.79 µM.
`C=CC(=O)N1CCC[C@@H](n2nc(C(=O)Nc3ccc(C(=O)N4CCn5ncnc5C4)c(C)c3)c3c(N)ncnc32)C1` [Compound 7]: the IC50 in test [1] was 8.84 µM; in test [2], 7.72 µM; in test [3], 6.02 µM; in test [4] it was 8.79 µM; in test [5] it was 6.29 µM; in test [6] it was 6.3 µM.
Turning to `C=CC(=O)N1CCC[C@@H](n2nc(C(=O)Nc3ccc(CN4CCn5ncnc5C4)c(C)c3)c3c(N)ncnc32)C1` [Compound 8], the half-maximal inhibitory concentration (IC50) was found to be 1.85 µM in test [1]; 6.75 µM in test [2]; 4.27 µM in test [3]; 9.46 µM in test [4]; 1.39 µM in test [5]; 3.24 µM in test [6].
With `C=CC(=O)N1CCC[C@@H](n2nc(C(=O)Nc3ccc(CN4CCn5ccnc5C4)c(C)c3)c3c(N)ncnc32)C1` [Compound 9], the half-maximal inhibitory concentration (IC50) stood at 1.38 µM in test [1]; 5.59 µM in test [2]; 1.98 µM in test [3]; 7.92 µM in test [4]; 1.29 µM in test [5]; 2.63 µM in test [6].
For `C=CC(=O)N1CCC[C@@H](n2nc(C(=O)Nc3ccc(-n4ccnc4)c(C)c3)c3c(N)ncnc32)C1` [Compound 10], the IC50 was 0.58 µM in test [1] and 3.43 µM in test [6].
`C=CC(=O)N1CCC[C@@H](n2nc(C(=O)Nc3ccc(Cn4cncn4)c(C)c3)c3c(N)ncnc32)C1` [Compound 11]: the IC50 in test [1] was 1.33 µM; in test [4], above 10 µM; in test [6], 5.96 µM.
Regarding `C=CC(=O)N1CCC[C@@H](n2nc(C(=O)Nc3ccc(CC(=O)N(C)C)c(C)c3C)c3c(N)ncnc32)C1` [TAS0728, reference compound], the IC50 in test [1] is 0.206 µM; in test [2], 4.48 µM; in test [3] it was 3.82 µM; in test [4], 0.921 µM; in test [5], 0.0643 µM; in test [6], 0.164 µM.
